{"source": "patent US20150086643A1", "about": "“TRADITIONAL CHINESE MEDICINE COMPOUND ANTITUMOR NANO PREPARATION AND USE THEREOF” (priority 2013, published 2015)", "test_system": "H22 hepatoma carcinoma cells", "experiment": "In-vivo tumor inhibitory effect in H22 tumor-bearing Kunming mice", "experimental": "The tumor-bearing Kunming mice are used to evaluate the in-vivo tumor inhibitory effect of the compound multiple-unit capsule of the present invention. Inoculating H22 hepatoma carcinoma cells (provided by Shanghai Institute of Materia Medica of Chinese Academy of Sciences) to enterocoelia of mice, taking out the H22 cells cultivated in the enterocoelia of mice after 6-8 days and preparing into homogeneous suspension with PBS; subcutaneously inoculating 0.2 mL of H22 cells (2×10^6/mL) to right axilla of each mouse. After inoculation, the mice are divided into 5 groups, 10 mice for each group: (1) Normal saline group (blank control), (2) 5-FU group (positive control), (3) 0.5% CMC-Na group, (4) Niu Huang Xing Xiao pill group and (5) Compound multiple-unit capsule group. The 5-FU group is subjected to administration through intraperitoneal injection, once every two days, with the dosage being 25 mg/kg. And the other four groups are subjected to intragastric administration. Preparation method of the Niu Huang Xing Xiao pill group and the compound multiple-unit capsule group is as follows: taking prescription amount of each component, adding the components into 0.5% CMC-Na water solution to prepare suspension. The concentration of drug for administration according to the original prescription for the groups (4) and (5) is 450 mg/kg (with the concentration of realgar being about 75 mg/kg). The tumor inhibiting rate is calculated with the following formula:\nTumor inhibiting rate=(C−T)/C×100%; C and T being average weight of the tumors on mice of the blank control and the treatment group."}
{"smiles": "O=c1[nH]cc(F)c(=O)[nH]1", "note": "[Example 5-FU, 5-FU]", "values": [{"measurement": "Weight of mice (g) After", "setting": "after treatment, n=10", "result": "24.20 ± 1.75", "unit": "g"}, {"measurement": "Weight of mice (g) Before", "setting": "before treatment, n=10", "result": "20.20 ± 0.92", "unit": "g"}, {"measurement": "Weight of tumor", "setting": "n=10, 5-FU 25 mg/kg i.p. once every two days, pill and capsule 450 mg/kg intragastric", "result": "0.50 ± 0.13", "unit": "g"}, {"measurement": "Tumor inhibiting rate (%)", "setting": "n=10, (C−T)/C×100% vs blank control, 5-FU 25 mg/kg i.p., pill and capsule 450 mg/kg intragastric", "result": 67.95, "unit": "%"}]}
